We go through one compound from ChEMBL document CHEMBL1221220, “Transport and signaling via the amino acid binding site of the yeast Gap1 amino acid transceptor” (Nat Chem Biol, 2009).

Structures are written as SMILES. Where a chain is given by its changes, count along the chain named. Calls of active or inactive are those of the source. The rule behind the calls is not given here.

Experiment [1] has as its system T1, General amino-acid permease GAP1 (Saccharomyces cerevisiae), P19145 [L383C].
T1 sequence (whole entry): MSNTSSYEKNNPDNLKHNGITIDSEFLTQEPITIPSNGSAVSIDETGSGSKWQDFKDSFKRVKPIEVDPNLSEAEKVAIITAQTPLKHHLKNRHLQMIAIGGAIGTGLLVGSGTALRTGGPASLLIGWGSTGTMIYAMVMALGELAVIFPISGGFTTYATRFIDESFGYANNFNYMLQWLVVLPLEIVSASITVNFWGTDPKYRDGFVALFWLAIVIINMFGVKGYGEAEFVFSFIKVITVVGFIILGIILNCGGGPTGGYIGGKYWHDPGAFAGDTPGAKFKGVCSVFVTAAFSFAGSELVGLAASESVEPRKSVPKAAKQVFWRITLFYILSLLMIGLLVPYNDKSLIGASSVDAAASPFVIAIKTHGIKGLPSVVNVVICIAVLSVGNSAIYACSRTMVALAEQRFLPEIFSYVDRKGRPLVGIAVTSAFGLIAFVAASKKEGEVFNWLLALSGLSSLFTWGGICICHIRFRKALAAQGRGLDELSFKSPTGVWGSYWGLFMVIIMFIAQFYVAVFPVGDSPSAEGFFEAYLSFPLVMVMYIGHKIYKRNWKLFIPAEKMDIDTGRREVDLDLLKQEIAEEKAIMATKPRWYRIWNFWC
The experiment can be described thus: Induction of yeast Gap1 L383C mutant-mediated trehalose activation at 10 mM.

Experiment [2] deals with General amino-acid permease GAP1 (Saccharomyces cerevisiae), P19145 [S392C]. The experiment can be described thus: Inhibition of yeast Gap1 S392C mutant-mediated amino acid uptake at 10 mM.
Sequence of General amino-acid permease GAP1 (Saccharomyces cerevisiae), P19145 [S392C] (P19145 whole entry S392C): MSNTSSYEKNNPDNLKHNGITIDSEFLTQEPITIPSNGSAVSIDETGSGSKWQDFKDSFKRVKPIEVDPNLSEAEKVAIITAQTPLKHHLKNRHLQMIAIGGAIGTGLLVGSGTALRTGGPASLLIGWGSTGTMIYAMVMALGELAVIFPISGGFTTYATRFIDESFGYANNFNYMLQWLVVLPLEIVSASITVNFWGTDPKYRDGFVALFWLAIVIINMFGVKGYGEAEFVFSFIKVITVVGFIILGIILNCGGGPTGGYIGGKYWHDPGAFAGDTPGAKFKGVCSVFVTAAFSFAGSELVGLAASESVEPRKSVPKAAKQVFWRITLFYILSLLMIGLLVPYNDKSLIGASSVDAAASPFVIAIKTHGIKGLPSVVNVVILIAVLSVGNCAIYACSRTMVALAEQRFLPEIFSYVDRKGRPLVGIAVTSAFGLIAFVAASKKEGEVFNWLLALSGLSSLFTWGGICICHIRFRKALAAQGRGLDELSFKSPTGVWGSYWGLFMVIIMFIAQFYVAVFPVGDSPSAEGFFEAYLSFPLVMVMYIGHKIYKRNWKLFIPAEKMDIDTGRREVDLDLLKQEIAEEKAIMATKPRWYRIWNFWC
Experiment [3] concerns T2, General amino-acid permease GAP1 (Saccharomyces cerevisiae), P19145 [A393C].
T2 sequence (whole entry): T1 sequence (whole entry) with C383L, A393C
The experiment is described as follows: Induction of yeast Gap1 A393C mutant-mediated […] activation at 2 mM in presence of 10 mM MTSEA treated before compound addition.

Experiment [4] concerns T3, General amino-acid permease GAP1 (Saccharomyces cerevisiae), P19145 [C397C].
T3 sequence (whole entry): T1 sequence (whole entry) with C383L
The experiment is described as follows: Induction of yeast Gap1 C397C mutant-mediated […] activation at 2 mM in presence of 10 mM MTSEA treated before compound addition.

In experiment [5] the test system is T1, General amino-acid permease GAP1 (Saccharomyces cerevisiae), P19145 [L383C]. The experiment is described as follows: Induction of yeast Gap1 L383C mutant-mediated amino acid uptake at 2 mM in presence of 10 mM MTSEA treated before compound addition.
Experiment [6] relates to T4, General amino-acid permease GAP1 (Saccharomyces cerevisiae), P19145 [A405C].
T4 sequence (whole entry): T1 sequence (whole entry) with C383L, A405C
The experiment can be described thus: Induction of yeast GAP1 A405C mutant-mediated amino acid uptake at 2 mM in presence of 10 mM MTSEA treated before compound addition.

For `NC(=O)NCCC[C@H](N)C(=O)O`, the result in experiment [1] was inactive. Moreover, the inhibition result in experiment [2], in experiment [3] and in experiment [4] was “Active” each time. Besides, the outcome in experiment [5] and in experiment [6] was Active.
